Measurements as given in PMC11594329, “Development of LAT1-Selective Nuclear Medicine Therapeutics Using Astatine-211” (International Journal of Molecular Sciences, 2024).
Entries after “also recorded” stand apart in the source; their conditions may differ.

How the values were obtained:
[1] = tested on: PANC-1 cells; test: Uptake in PANC-1 cell line; format: cell-based; conditions: for Uptake of optical isomers: %ID/mg protein
Method: Each cell line was seeded in 24 wells at 1 × 10^5 cells/mL and allowed to become sub-confluent on the day of the experiment. Cells were washed with PBS (-) (Fujifilm Wako Pure Chemical, Osaka, Japan) prior to the addition of the compound, which was then replaced with uptake buffer. After treating the cells with the same dose, they were collected at predetermined time points. The cell dose was measured using a γ-counter (Wizard^2 2480; PerkinElmer, Waltham, MA, USA), and the protein content of the sample was determined. Protein content was measured using the BCA method, and the dose was corrected using the protein content (Protein Assay BCA kit, Fujifilm Wako Pure Chemical).
Figure 2 Comparison of uptake between the labeled compounds. (A) Relation between uptake ratio and LAT1 expression level. Uptake ratios were compared between LAT1-Tet/HEK293 cells. The Y-axis represents the uptake ratio, and the X-axis is concentration of Doxycycline (Dox) (TaKaRa Bio, Shiga, Japan). The collection time was 30 min after treatment. The expression of LAT1 increased with increasing amounts of Dox. (B) Comparison of uptake in PANC-1 cell line. The collection times were 0.5, 1, 5 and 10 min after treatment.
Figure 3 Comparison of intracellular uptake of […]-AAMT-O-Me L-isomer and ^211At-AAMT-O-Me D-isomer of ^211At-AAMT-O-Me. (A) Uptake in Mock/HEK293, LAT1/HEK293, and […] lines. (B) Uptake in PANC-1 cells. The y-axis represents %ID/mg protein. BCH: -Amino-2-norbornanecarboxylic acid. BCH was treated at 20 mM. ** p < 0.01, *** p < 0.001.
The PANC-1 cell line was obtained from the RIKEN Cell Bank and maintained in RPMI 1640 medium (Fujifilm Wako Pure Chemical, Osaka, Japan) supplemented with 10% inactivated fetal bovine serum (Thermo Fisher Scientific, Waltham, MA, USA). Mock/HEK293, LAT1/HEK293, and LAT2/HEK203 cells were kindly provided by Dr. Kanai. Cell lines controlling LAT1 expression were constructed using the Tet-on system. […]

[2] = Tissue distribution in ICR mice (normal animals); format: in vivo
Excerpt: (§1) ICR mice (male, 5 weeks old) were purchased from Japan SLC (Shizuoka, Japan) and acclimated for one week prior to use. The doses in the distribution experiments were as follows: ^211At-AAMT-O-Me-L (0.407 ± 0.005 MBq/mouse, 31.64 ± 0.76 g, n = 6), ^211At-AAMT-O-Me-D (0.351 ± 0.004 MBq/mouse, 31.44 ± 0.94 g, n = 6), ^211At-AAMT-O-Et-L (0.685 ± 0.010 MBq/mouse, 24.14 ± 3.31 g, n = 6), ^211At-AAMT-O-Pr-L (1.09 ± 0.06 MBq/mouse, 26.33 ± 0.39 g, n = 6)

[3] = Urinary and fecal excretion in ICR mice; format: in vivo
Method: Urinary excretion levels were also examined (Supplementary Table S1). Comparing the D-isomer and L isomer of ^211At-AAMT-O-Me from ICR mice, the D-isomer; 24.84 ± 13.03% ID, L-isomer; 33.69 ± 1.26% ID at 1 h after injection. D-isomer; 71.36 ± 4.67% ID, L-isomer; 23.99 ± 2.40% ID at 3 h after injection. From PANC-1 tumor bearing mice, D-isomer; 35.24 ± 8.70% ID, L-isomer; 20.40 ± 0.76% ID at 1 h after injection. D-isomer; 47.38 ± 3.19% ID, L-isomer; 3.23 ± 0.67% ID at 3 h after injection. In tumor-bearing models, the amount of excretion was smaller than that in normal mice. We have already reported that, in the presence of target cancer tissue for administered drugs, retention in the cancer tissue results in reduced excretion compared with normal animals. […] The same was also observed for feces, but very little was excreted in the feces. The results were as follows: from ICR mice, D-isomer; 0.06 ± 0.03% ID, L-isomer; 0.004 ± 0.003% ID at 1 h after injection. D-isomer; 0.02 ± 0.01% ID, L-isomer; 0.02 ± 0.01% ID at 3 h after injection. From PANC-1 tumor bearing mice, D-isomer; 0.25 ± 0.12% ID, L-isomer; 0.002 ± 0.001% ID at 1 h after injection. D-isomer; 0.75 ± 0.46% ID; L-isomer; 0.07 ± 0.03% ID at 3 h after injection.
as §1

COc1ccc(C[C@@](C)(N)C(=O)O)cc1[211At] [^211At-AAMT-O-Me-D]
Uptake of optical isomers [1]: taken up less
Tissue distribution, Bladder ([2]; 1 h after injection): 10.62 ± 8.22 %ID/g
Tissue distribution, Blood ([2]; 1 h after injection): 1.90 ± 0.57 %ID/g
Tissue distribution, Bone ([2]; 1 h after injection): 0.93 ± 0.35 %ID/g
Tissue distribution, Brain ([2]; 1 h after injection): 0.15 ± 0.01 %ID/g
Tissue distribution, Cecum ([2]; 1 h after injection): 0.47 ± 0.19 %ID/g
Tissue distribution, Colon ([2]; 1 h after injection): 2.54 ± 1.55 %ID/g
Tissue distribution, Heart ([2]; 1 h after injection): 3.20 ± 1.26 %ID/g
Tissue distribution, Kidney ([2]; 1 h after injection): 1.48 ± 0.39 %ID/g
Tissue distribution, Liver ([2]; 1 h after injection): 0.58 ± 0.11 %ID/g
Tissue distribution, Lung ([2]; 1 h after injection): 2.84 ± 1.11 %ID/g
Tissue distribution, Pancreas ([2]; 1 h after injection): 2.38 ± 1.36 %ID/g
Tissue distribution, Salivary glands ([2]; 1 h after injection): 4.67 ± 1.03 %ID/g
Tissue distribution, Small intestine ([2]; 1 h after injection): 2.66 ± 1.23 %ID/g
Tissue distribution, Spleen ([2]; 1 h after injection): 2.92 ± 1.49 %ID/g
Tissue distribution, Stomach ([2]; 1 h after injection): 6.34 ± 2.74 %ID/g
Tissue distribution, Testis ([2]; 1 h after injection): 1.84 ± 0.23 %ID/g
Tissue distribution, Thymus ([2]; 1 h after injection): 1.89 ± 0.90 %ID/g
Tissue distribution, Thyroid ([2]; 1 h after injection): 8.06 ± 3.56 %ID/g
Tissue distribution, Bladder ([2]; 3 h after injection): 0.19 ± 0.11 %ID/g
Tissue distribution, Blood ([2]; 3 h after injection): 0.38 ± 0.16 %ID/g
Tissue distribution, Bone ([2]; 3 h after injection): 0.28 ± 0.11 %ID/g
Tissue distribution, Brain ([2]; 3 h after injection): 0.04 ± 0.00 %ID/g
Tissue distribution, Cecum ([2]; 3 h after injection): 0.50 ± 0.23 %ID/g
Tissue distribution, Colon ([2]; 3 h after injection): 0.95 ± 0.59 %ID/g
Tissue distribution, Heart ([2]; 3 h after injection): 0.43 ± 0.20 %ID/g
Tissue distribution, Kidney ([2]; 3 h after injection): 0.73 ± 0.15 %ID/g
Tissue distribution, Liver ([2]; 3 h after injection): 1.34 ± 0.47 %ID/g
Tissue distribution, Lung ([2]; 3 h after injection): 0.69 ± 0.28 %ID/g
Tissue distribution, Pancreas ([2]; 3 h after injection): 0.42 ± 0.28 %ID/g
Tissue distribution, Salivary glands ([2]; 3 h after injection): 0.96 ± 0.16 %ID/g
Tissue distribution, Small intestine ([2]; 3 h after injection): 5.33 ± 2.18 %ID/g
Tissue distribution, Spleen ([2]; 3 h after injection): 0.42 ± 0.14 %ID/g
Tissue distribution, Stomach ([2]; 3 h after injection): 8.08 ± 3.50 %ID/g
Tissue distribution, Testis ([2]; 3 h after injection): 0.31 ± 0.02 %ID/g
Tissue distribution, Thymus ([2]; 3 h after injection): 0.18 ± 0.06 %ID/g
Tissue distribution, Thyroid ([2]; 3 h after injection): 0.42 ± 0.20 %ID/g
Excretion in feces ([3]; 1 h after injection): 0.06 ± 0.03 % ID
Urinary excretion ([3]; 1 h after injection): 24.84 ± 13.03 % ID
Excretion in feces ([3]; 3 h after injection): 0.02 ± 0.01 % ID
Urinary excretion ([3]; 3 h after injection): 71.36 ± 4.67 % ID
Urinary content ([3]; after 3 h): exceeded 70%

COc1ccc(C[C@](C)(N)C(=O)O)cc1[211At] [^211At-AAMT-O-Me-L, (S)-2-amino-3-(3-(astato-^211At)-4-methoxyphenyl)-2-methylpropanic acid]
Uptake of optical isomers [1]: taken up more
Time-dependent uptake ([1]; collection 0.5, 1, 5 and 10 min after treatment): highest uptake; also recorded: significantly higher uptake than the seed compound
Tissue distribution, Bladder ([2]; 1 h after injection): 7.10 ± 1.15 %ID/g
Tissue distribution, Blood ([2]; 1 h after injection): 1.57 ± 0.10 %ID/g
Tissue distribution, Bone ([2]; 1 h after injection): 1.33 ± 0.16 %ID/g
Tissue distribution, Brain ([2]; 1 h after injection): 0.32 ± 0.02 %ID/g
Tissue distribution, Cecum ([2]; 1 h after injection): 0.85 ± 0.04 %ID/g
Tissue distribution, Colon ([2]; 1 h after injection): 0.93 ± 0.13 %ID/g
Tissue distribution, Heart ([2]; 1 h after injection): 2.01 ± 0.15 %ID/g
Tissue distribution, Kidney ([2]; 1 h after injection): 2.47 ± 0.24 %ID/g
Tissue distribution, Liver ([2]; 1 h after injection): 1.11 ± 0.10 %ID/g
Tissue distribution, Lung ([2]; 1 h after injection): 6.42 ± 1.52 %ID/g
Tissue distribution, Pancreas ([2]; 1 h after injection): 1.52 ± 0.17 %ID/g
Tissue distribution, Salivary glands ([2]; 1 h after injection): 7.16 ± 1.54 %ID/g
Tissue distribution, Small intestine ([2]; 1 h after injection): 1.82 ± 0.08 %ID/g
Tissue distribution, Spleen ([2]; 1 h after injection): 5.01 ± 1.42 %ID/g
Tissue distribution, Stomach ([2]; 1 h after injection): 13.65 ± 2.40 %ID/g
Tissue distribution, Testis ([2]; 1 h after injection): 2.31 ± 0.04 %ID/g
Tissue distribution, Thymus ([2]; 1 h after injection): 2.03 ± 0.50 %ID/g
Tissue distribution, Thyroid ([2]; 1 h after injection): 13.12 ± 1.72 %ID/g
Tissue distribution, Bladder ([2]; 3 h after injection): 0.10 ± 0.01 %ID/g
Tissue distribution, Blood ([2]; 3 h after injection): 1.17 ± 0.24 %ID/g
Tissue distribution, Bone ([2]; 3 h after injection): 0.53 ± 1.31 %ID/g
Tissue distribution, Brain ([2]; 3 h after injection): 0.10 ± 0.02 %ID/g
Tissue distribution, Cecum ([2]; 3 h after injection): 0.95 ± 0.11 %ID/g
Tissue distribution, Colon ([2]; 3 h after injection): 0.80 ± 0.12 %ID/g
Tissue distribution, Heart ([2]; 3 h after injection): 0.34 ± 0.02 %ID/g
Tissue distribution, Kidney ([2]; 3 h after injection): 1.11 ± 0.15 %ID/g
Tissue distribution, Liver ([2]; 3 h after injection): 2.57 ± 0.17 %ID/g
Tissue distribution, Lung ([2]; 3 h after injection): 1.34 ± 0.32 %ID/g
Tissue distribution, Pancreas ([2]; 3 h after injection): 0.19 ± 0.04 %ID/g
Tissue distribution, Salivary glands ([2]; 3 h after injection): 1.77 ± 0.19 %ID/g
Tissue distribution, Small intestine ([2]; 3 h after injection): 3.91 ± 0.20 %ID/g
Tissue distribution, Spleen ([2]; 3 h after injection): 0.80 ± 0.19 %ID/g
Tissue distribution, Stomach ([2]; 3 h after injection): 16.96 ± 1.89 %ID/g
Tissue distribution, Testis ([2]; 3 h after injection): 0.52 ± 0.06 %ID/g
Tissue distribution, Thymus ([2]; 3 h after injection): 0.14 ± 0.03 %ID/g
Tissue distribution, Thyroid ([2]; 3 h after injection, listed as L-Isomer): 0.65 ± 0.16 %ID/g
Excretion in feces ([3]; 1 h after injection): 0.004 ± 0.003 % ID
Urinary excretion ([3]; 1 h after injection): 33.69 ± 1.26 % ID
Excretion in feces ([3]; 3 h after injection): 0.02 ± 0.01 % ID
Urinary excretion ([3]; 3 h after injection): 23.99 ± 2.40 % ID
